Changes are numbered by the printed parent chain. Where two headings read alike, the source gives them in different places.
Assays:
RET = settings: cited from earlier work
Ba/F3-KIF5B-RET-V804L = biological target: T1, Ba/F3-KIF5B-RET-V804L (Homo sapiens, UniProt P07949, V804L); test: Cell anti-proliferation (CellTiter-Glo), Ba/F3-KIF5B-RET-V804L cells; type: cell-based; settings: cell viability, 72 h incubation
T1 construct: KIF5B (fusion partner, N-terminal part of kinesin-1 heavy chain, P33176); host or cells: Ba/F3 (murine pro-B cells); the other entry of the earlier key: KIF5B (P33176, Kinesin-1 heavy chain)
T1 sequence (P07949 713-1063 V804L limits assumed): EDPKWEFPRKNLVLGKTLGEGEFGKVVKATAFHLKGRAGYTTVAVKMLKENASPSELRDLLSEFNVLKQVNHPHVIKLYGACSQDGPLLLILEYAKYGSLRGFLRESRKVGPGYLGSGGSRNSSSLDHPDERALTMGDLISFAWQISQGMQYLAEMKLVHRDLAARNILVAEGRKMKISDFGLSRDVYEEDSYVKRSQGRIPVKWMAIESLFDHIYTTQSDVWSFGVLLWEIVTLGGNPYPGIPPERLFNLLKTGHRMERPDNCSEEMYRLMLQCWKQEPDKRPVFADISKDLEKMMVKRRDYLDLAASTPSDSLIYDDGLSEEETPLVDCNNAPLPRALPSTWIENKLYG
Method: (§1) Ba/F3-KIF5B-RET, Ba/F3-KIF5B-RET-V804L and Ba/F3-KIF5B-RET-V804M cells were constructed by PreceDo Pharmaceuticals Co., Ltd.
(§2) Ba/F3-KIF5B-RET, Ba/F3-KIF5B-RET-V804L and Ba/F3-KIF5B-RET-V804M medium: RPMI-1640+10% FBS+1% P/S.
(§3) A 1000×solution of the compound was prepared with DMSO, the compound was diluted to 20 times to obtain the final concentration with a growth medium, and 2 μl 1000×cpd was added to 98 μl growth medium.
(§4) Cells were centrifuged and resuspended with growth medium and cell counting was performed using a cell counter. The cell suspension was diluted with growth medium to the desired concentration. 95 uL of the diluted cell suspension was taken out to a 96-well plate. 5 μL of 20×compound solution was added to the 96-well plate to a final DMSO concentration of 0.1% per well. The 96-well plate was incubated for 72 h at 37° C. with 5% CO2.
(§5) The 96-well plate was equilibrated to room temperature before the assay, 50 μl of CellTiter-Glo® Reagent was added to each well, the cells were fully lysed by shaking for 2 minutes on a shaker, incubated for 10 minutes at room temperature, and Paradigm was used to detect and record the […] readings.
(§6) Cell viability was analyzed using Graphpad 7.0 software according to the formula Cell viability (CV %)=(RLU compound−RLU blank)/(RLU control−RLU blank)*100%, and the corresponding IC50 data were calculated, in Table 1, the following names are used: <10.00 nM=A; 10.01-50.0 nM=B; >50 nM=C.

Ba/F3-KIF5B-RET = biological target: T2, Ba/F3-KIF5B-RET (Homo sapiens, UniProt P07949); test: Cell anti-proliferation (CellTiter-Glo), Ba/F3-KIF5B-RET cells; type: cell-based; settings: cell viability, 72 h incubation, CellTiter-Glo
T2 construct: KIF5B (fusion partner, N-terminal part of kinesin-1 heavy chain, P33176); host or cells: Ba/F3 (murine pro-B cells); the other entry of the earlier key: KIF5B (P33176, Kinesin-1 heavy chain)
T2 sequence (P07949 713-1063 limits assumed): T1 sequence (P07949 713-1063 V804L limits assumed) with L92V
Method: as §1, §2, §3, §4, §5, §6

Ba/F3-KIF5B-RET cells = test: In vivo efficacy study, subcutaneous Ba/F3-KIF5B-RET tumor in nude mice; parameters: species or system BALB/c nude mice; settings: 10 mg/kg P.O. BID x 3 weeks
Method: Cell culture: Ba/F3-KIF5B-RET cell line was cultured with 1640 medium (Biological Industries)+10%/f fetal bovine serum (BI)+1% double antibody (Penicillin Streptomycin solution, Corning, USA) at 37° C. with 5% CO2. Two passages were performed for one week. When the cell saturation was 80%-90% and the number reached the required level, the cells were collected, counted and inoculated.
Animals: BALB/c nude mice, female, 6-8 weeks of age, weighing 18-22 g. A total of 18 mice were required, provided by Beijing Vital River Laboratory Animal Technology Co., Ltd.
Tumor inoculation: 0.2 ml (2×106) Ba/F3-KIF5B-RET cells (plus stromal gel, volume ratio 1:1) were inoculated subcutaneously on the right posterior dorsum of each mouse, and group dosing was started when the average tumor volume reached about 150-200 mm^3.
Experimental index: Tumor volume and body weight were measured twice a week. Tumor volume was measured by vernier calipers with the formula TV=0.5 a×b2, where a is the long diameter of the tumor and b is the short diameter of the tumor.

Ba/F3-KIF5B-RET-V804M = biological target: T3, Ba/F3-KIF5B-RET-V804M (Homo sapiens, UniProt P07949, V804M); test: Cell anti-proliferation (CellTiter-Glo), Ba/F3-KIF5B-RET-V804M cells; type: cell-based; settings: cell viability, 72 h incubation
T3 construct: KIF5B (fusion partner, N-terminal part of kinesin-1 heavy chain, P33176); host or cells: Ba/F3 (murine pro-B cells); the other entry of the earlier key: KIF5B (P33176, Kinesin-1 heavy chain)
T3 sequence (P07949 713-1063 V804M limits assumed): T1 sequence (P07949 713-1063 V804L limits assumed) with L92M
Method: as §1, §2, §3, §4, §5, §6

Row | SMILES | overall remission rate (ORR) (RET; patients with medullary thyroid carcinoma) | overall remission rate (ORR) (RET; patients with non-small cell lung cancer) | overall remission rate (ORR) (RET; tumor patients with RET fusion and mutation) | IC50 (Ba/F3-KIF5B-RET-V804L) | IC50 (Ba/F3-KIF5B-RET) | Tumor Volume(mm^3) 0 day (Ba/F3-KIF5B-RET cells) | Tumor Volume(mm^3) 2 days (Ba/F3-KIF5B-RET cells) | Tumor Volume(mm^3) 5 days (Ba/F3-KIF5B-RET cells) | Tumor Volume(mm^3) 9 days (Ba/F3-KIF5B-RET cells) | Tumor Volume(mm^3) 12 days (Ba/F3-KIF5B-RET cells) | Tumor Volume(mm^3) 16 days (Ba/F3-KIF5B-RET cells) | Tumor Volume(mm^3) 19 days (Ba/F3-KIF5B-RET cells) | Tumor Volume(mm^3) 22 days (Ba/F3-KIF5B-RET cells) | IC50 (Ba/F3-KIF5B-RET-V804M)
1 | CO[C@]1(C(=O)N[C@@H](C)c2ccc(-n3cc(F)cn3)nc2)CC[C@H](c2nc(C)cc(Nc3cc(C)[nH]n3)n2)CC1 [BLU-667] | 40% | 50% | 45% | – | – | – | – | – | – | – | – | – | – | –
2 | CO[C@]1(C(=O)N[C@@H](C)c2ccc(-n3cc(F)cn3)nc2)CC[C@H](c2nc(Nc3cc(C)[nH]n3)c3cnn(C)c3n2)CC1 [Compound C1] | – | – | – | < 10 nM | < 10 nM | 168.34 mm^3 | 162.57 mm^3 | 139.55 mm^3 | 189.12 mm^3 | 222.35 mm^3 | 203.41 mm^3 | 199.75 mm^3 | 199.64 mm^3 | < 10 nM
3 | CO[C@]1(C(=O)N[C@@H](C)c2ccc(-n3cc(F)cn3)nc2)CC[C@H](c2nc(Nc3cc(C)[nH]n3)c3ccn(C)c3n2)CC1 [Control Example 1, reference compound] | – | – | – | < 10 nM | < 10 nM | 169.95 mm^3 | 157.73 mm^3 | 144.57 mm^3 | 185.92 mm^3 | 204.18 mm^3 | 272.83 mm^3 | 277.52 mm^3 | 292.41 mm^3 | < 10 nM

From patent US12545681B2, “Compound used as RET kinase inhibitor and application thereof” (TYK Medicines, Inc., priority 2020, dated 2026)
